Experimental data published in patent publication US10040804B2, “Compounds targeting proteins, compositions, methods, and uses thereof” (BioTheryX, Inc., priority 2016, dated 2018).
Structures can show the parent of a compound that is named as a salt.

Legend:
TNF-α = TNF-α expression in LPS stimulated PBMCs (Meso Scale); type: cell-based, human; conditions: Homo sapiens, PBMC; for inhibition at 10 µM: compound concentration 10 μM
Method: FIGS. 7 and 9C are graphs showing TNF-a expression in LPS stimulated peripheral blood mononuclear cells (PBMCs). PBMCs were plated in 96-well plates and pretreated with compound (Compound 1-9 individually) for 1 h, and then induced with 100 ng/mL LPS for 18-24 h. Cytokines in the media were measured according to MesoScale protocol. The negative control wells were treated with DMSO. Compound activity is measured as a percentage of LPS-induced activity. “Rev” is lenalidomide.
(§1) Frozen primary blood mononuclear cells (PBMCs) and frozen CD14+ mobilized peripheral blood monocytes were purchased from AllCells. Cells were quick thawed, and washed 1-time with RPMI-1640/10% FBS/1% Penicillin/1% Streptomycin and plated in 96-well plates at 200,000 cells per well. Cells were pretreated with DMSO only, Compound 5013 (lenolidamide) or the indicated compound for 1 h and then induced with 100 ng/mL lipopolysaccharide (LPS) for 18-24 h. The supernatant was analyzed for IL-1 beta, IL-6, and TNF-α using Meso Scale assay according to manufacturer's protocol. The negative control wells were treated with DMSO.
(§2) PBMCs: AllCells PB003F, Normal Peripheral Blood MNC.
(§3) Media: RPMI 1640/10% FBS/1% Pen-Strep.

Molm-13 cells = assay: Molm-13 cell viability (CellTiter-Glo); type: cell-based; conditions: Homo sapiens, MOLM-13, read-out: % Inhibition (MOLM-13 Cell Viability); for cytotoxicity at 10 µM: compound concentration 10 μM
Method: FIG. 10A is a graph showing antiproliferative activity in H1048 (SCLC) cells. FIG. 10B is a graph showing antiproliferative activity in Molm-13 (AML) cells. In FIGS. 10A and 10B, the cells were incubated for 72 hrs with Compound 9 at the indicated concentrations or DMSO. Compound activity was measured based on the signal from remaining viable cells.
Molm-13 cells were cultivated in RPMI-1640 (10% FBS/1% pen-strep) and were plated in white walled 96-well plates at 20,000 cells/well. H1048 cells were cultured in DMEM:F12 media supplemented with 5% fetal bovine serum, insulin, transferrin, sodium selenite, hydrocortisone, β-estradiol, penicillin and streptomycin, and were plated in white walled 96-well plates at 20,000 cells/well. MDA-MB-231 cells were cultured in DMEM media supplemented with 10% fetal bovine serum, penicillin and streptomycin, and were plated in white walled 96-well plates at 10,000 cells/well. Cells were treated with compound or DMSO (0.1%, control) and the cultures were incubated for 3 days at 37° C. and 5% CO2. Following the incubation period, 100 μL of CellTiterGlow (CTG) reagent (CellTiter-Glo® Luminescent Cell Viability Assay, Promega (Madison, Wis.)) was added to each well. Following a 10 min incubation with shaking, luminescence was measured using a Victor Wallac Luminometer.

IL-1β = IL-1β expression in LPS stimulated PBMCs (Meso Scale); type: cell-based, human; conditions: Homo sapiens, PBMC; for inhibition at 10 µM: compound concentration 10 μM
Method: FIGS. 5 and 9A are graphs showing IL-1-beta expression in LPS stimulated peripheral blood mononuclear cells (PBMCs), PBMCs were plated in 96-well plates and pretreated with compound (Compound 1-9 individually) for 1 h, and then induced with 100 ng/mL LPS for 18-24 h. Cytokines in the media were measured according to MesoScale protocol. Negative control wells were treated with DMSO. Compound activity is measured as a percentage of LPS-induced activity. “Rev” is lenalidomide.
as §1, §2, §3

IL-2 = assay: anti-CD3-induced IL-2 secretion in PBMCs; type: cell-based; conditions: Homo sapiens, PBMC, anti-CD3 stimulated PBMCs, 24 h, DMSO = 1.0, read-out: Fold Change IL-2; for fold induction at 10 µM: compound concentration 10 μM
Method: FIGS. 4 and 9D are graphs showing anti-CD3-induced IL-2 secretion in PBMCs. 1 ug/mL anti-CD3 (OKT-3) antibody in PBS were coated onto 96-well plates overnight at 4° C. Approximately 550,000 PBMCs were added to each well, followed by addition of DMSO only, Compound 1-8 at 10 μM (FIG. 4) or Compound 9 at 0.1 μM or 1 μM (FIG. 9D), or 10 μM lenalidomide (rev). Induction was measured after 24 h as fold difference from the DMSO stimulated control.
For the IL-2 analysis, 96 well plates were precoated with 1 ug/mL anti-human CD3 antibody (OKT3, eBioscience Inc.). After washing with PBS, compounds were added to the wells (50 μL/well) followed by PBMCs diluted at 3-4 million cells/mL (150 μL/well). Plates were incubated for 24 h and the supernatants collected for Mesoscale IL-2 analysis.
Compound activity was measured as fold difference from the DMSO control. IL-1-beta activity is shown in FIG. 1; IL-6 activity is shown in FIG. 2; TNF-α activity is shown in FIG. 3; and IL-2 activity is shown in FIG. 4.

IL-6 = IL-6 expression in LPS stimulated PBMCs (Meso Scale); type: cell-based, human; conditions: Homo sapiens, PBMC, LPS-stimulated PBMCs; for inhibition at 10 µM: compound concentration 10 μM
Method: FIGS. 6 and 9B are graphs showing IL-6 expression in LPS stimulated peripheral blood mononuclear cells (PBMCs). PBMCs were plated in 96-well plates and pretreated with compound (Compound 1-9 individually) for 1 h, and then induced with 100 ng/mL LPS for 18-24 h. Cytokines were measured according to MesoScale protocol. Negative control wells were treated with DMSO. Compound activity was measured as a percentage of LPS-induced activity. “Rev” is lenalidomide.
as §1, §2, §3

SMILES | inhibition at 10 µM (TNF-α) | cytotoxicity at 10 µM (Molm-13 cells) | inhibition at 10 µM (IL-1β) | fold induction at 10 µM (IL-2) | inhibition at 10 µM (IL-6) | cytotoxicity at 2.8 µM (Molm-13 cells; compound concentration 2.8 μM) | cytotoxicity at 6 µM (Molm-13 cells; compound concentration 6 μM) | inhibition at 5 µM (TNF-α; compound concentration 5 μM) | inhibition at 5 µM (IL-1β; compound concentration 5 μM) | fold induction at 5 µM (IL-2; compound concentration 5 μM) | inhibition at 5 µM (IL-6; compound concentration 5 μM)
Cc1cc2c(s1)CN([C@H]1CCCC(=O)NC1=O)C2=O [Compound 11, (S)-3-(2-Methyl-4-oxo-4,6-dihydro-5H-thieno[2,3-c]pyrrol-5-yl)azepane-2,7-dione] | 46% | 18% | 65% | 2.6 | 26% |  |  |  |  |  | 
O=C1CCC[C@H](N2C(=O)c3ccsc3C2=O)C(=O)N1 [Compound 3, (S)-5-(2,7-dioxoazepan-3-yl)-4H-thieno[2,3-c]pyrrole-4,6(5H)-dione] | 0% | 0% | 0% | 0.9 | 0% |  |  |  |  |  | 
Cc1scc2c1CN([C@H]1CC(=O)NC1=O)C2=O [Compound 20, (S)-3-(1-Methyl-4-oxo-4H-thieno[3,4-c]pyrrol-5(6H)-yl) pyrrolidine-2,5-dione] | 58% | 19% | 50% | 2.2 | 19% |  |  |  |  |  | 
O=C1CCC(N2Cc3c(csc3C(F)F)C2=O)C(=O)N1 (centres unmarked) [Compound 23, 3-(1-(Difluoromethyl)-4-oxo-4H-thieno[3,4-c]pyrrol-5(6H)-yl)piperidine-2,6-dione] | 82% | 34% | 69% | 2 | 45% |  |  |  |  |  | 
Nc1scc2c1C(=O)N([C@H]1CCCC(=O)NC1=O)C2=O [Compound 16, (S)-1-Amino-5-(2,7-dioxoazepan-3-yl)-4H-thieno[3,4-c]pyrrole-4,6(5H)-dione] | 78% | 23% | 80% | 2.2 | 51% |  |  |  |  |  | 
Cc1cnc(Nc2ccc(OCCCNCC(=O)NCc3scc4c3CN(C3CCC(=O)NC3=O)C4=O)cc2)nc1Nc1cccc(S(=O)(=O)NC(C)(C)C)c1 (centres unmarked) [Compound 59, 2-((3-(4-((4-((3-(N-(tert-Butyl)sulfamoyl)phenyl)amino)-5-methylpyrimidin-2-yl)amino)phenoxy)propyl)amino)-N-((5-(2,6-dioxopiperidin-3-yl)-4-oxo-5,6-dihydro-4H-thieno[3,4-c]pyrrol-1-yl)methyl)acetamide] | 81% |  | 45% | 1.8 | 10% | 50% |  |  |  |  | 
O=C1C[C@H](N2Cc3sccc3C2=O)C(=O)N1 [Compound 6, (S)-3-(4-oxo-4,6-dihydro-5H-thieno[2,3-c]pyrrol-5-yl)pyrrolidine-2,5-dione] | 16% | 0% | 14% | 1 | 8% |  |  |  |  |  | 
O=C1CCC[C@H](N2Cc3c(csc3Br)C2=O)C(=O)N1 [Compound 13, (S)-3-(1-Bromo-4-oxo-4H-thieno[3,4-c]pyrrol-5(6H)-yl)azepane-2,7-dione] | 84% | 0% | 90% | 1.2 | 66% |  |  |  |  |  | 
O=C1CCC[C@H](N2Cc3c(C4CCCC4)csc3C2=O)C(=O)N1 [Compound 24, (S)-3-(3-Cyclopentyl-6-oxo-4H-thieno[2,3-c]pyrrol-5(6H)-yl)azepane-2,7-dione] | 23% | 26% | 11% | 0.7 | 6% |  |  |  |  |  | 
Cc1cnc(Nc2ccc(OCCCNCC(=O)NCc3scc4c3CN([C@H]3CCCC(=O)NC3=O)C4=O)cc2)nc1Nc1cccc(S(=O)(=O)NC(C)(C)C)c1 [Compound 58, (S)-2-((3-(4-((4-((3-(N-(tert-Butyl)sulfamoyl)phenyl)amino)-5-methylpyrimidin-2-yl)amino)phenoxy)propyl)amino)-N-((5-(2,7-dioxoazepan-3-yl)-4-oxo-5,6-dihydro-4H-thieno[3,4-c]pyrrol-1-yl)methyl)acetamide] | 92% |  | 82% | 1.9 | 53% |  | 50% |  |  |  | 
O=C1CCC[C@H](N2Cc3cscc3C2=O)C(=O)N1 [Compound 7, (S)-3-(4-oxo-4H-thieno[3,4-c]pyrrol-5(6H)-yl)azepane-2,7-dione] | 41% | 24% | 60% | 1.7 | 47% |  |  |  |  |  | 
NCc1scc2c1CN([C@H]1CCCC(=O)NC1=O)C2=O [Compound 18, (S)-3-(1-(Aminomethyl)-4-oxo-4H-thieno[3,4-c]pyrrol-5(6H)-yl)azepane-2,7-dione 2,2,2-trifluoroacetic Acid Salt] | 48% | 3% | 36% | 0.9 | 32% |  |  |  |  |  | 
O=C1CCC[C@H](N2C(=O)c3csc([N+](=O)[O-])c3C2=O)C(=O)N1 [Compound 15, (S)-5-(2,7-Dioxoazepan-3-yl)-1-nitro-4H-thieno[3,4-c]pyrrole-4,6(5H)-dione] | 55% | 19% | 67% | 0.7 | 56% |  |  |  |  |  | 
O=C1CCC[C@H](N2Cc3c(csc3C3CCCC3)C2=O)C(=O)N1 [Compound 10, (S)-3-(1-Cyclopentyl-4-oxo-4H-thieno[3,4-c]pyrrol-5(6H)-yl)azepane-2,7-dione] | 37% | 18% | 21% | 0.6 | 13% |  |  |  |  |  | 
O=C1CCC[C@@H](N2Cc3sccc3C2=O)C(=O)N1 [Compound 5, (R)-3-(4-oxo-4,6-dihydro-5H-thieno[2,3-c]pyrrol-5-yl)azepane-2,7-dione] | 0% | 24% | 0% | 1.4 | 1% |  |  |  |  |  | 
O=C1CCC[C@H](N2Cc3ccsc3C2=O)C(=O)N1 [Compound 1, (S)-3-(6-oxo-4,6-dihydro-5H-thieno[2,3-c]pyrrol-5-yl)azepane-2,7-dione] |  | 6% |  |  |  |  |  | 22% | 25% | 0.8 | 0%
